Experimental data taken from patent EP2832347B1, “Method for identifying patchouli odorant materials” (Takasago International Corporation, priority 2013, dated 2015).
Values joined by “and” are separate entries in the source; they are usually repeats but may differ in a detail not shown here. Equal entries are not always repeated. Where two headings read alike, the source gives them in different places. One block for each compound: values may come before it.

Assays:
OR11A1 [1] = biological target: T1, OR11A1 (Homo sapiens, UniProt Q9GZK7); assay: CRE-luciferase reporter assay in HEKOlf cells transiently transfected with OR11A1; type: cell-based; conditions: for EC50: Example 4, Table 5, 0.03-100 µM tested; for Potency and efficacy on OR11A1 (comparison between odorants): 0.1 to 100 µM (Figure 6)
T1 construct: expressed in transfected cells; host or cells: HEKOlf (HEK293 stably expressing human Galpha-olf and bovine CNGA2)
T1 sequence (Q9GZK7 1-315): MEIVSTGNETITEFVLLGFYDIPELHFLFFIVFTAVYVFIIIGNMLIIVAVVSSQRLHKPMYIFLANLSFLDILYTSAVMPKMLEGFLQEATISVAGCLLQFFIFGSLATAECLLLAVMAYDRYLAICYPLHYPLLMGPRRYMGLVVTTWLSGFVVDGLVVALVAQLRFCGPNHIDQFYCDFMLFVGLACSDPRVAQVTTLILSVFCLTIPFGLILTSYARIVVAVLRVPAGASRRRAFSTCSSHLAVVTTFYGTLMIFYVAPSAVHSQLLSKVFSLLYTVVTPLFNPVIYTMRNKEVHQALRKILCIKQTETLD
Description: (§1) The experiments were performed using a HEK293 cell line (deposited at the ATCC under accession n° CRL-1573) stably expressing the Gαolf G-protein and the cyclic nucleotide gated ion channel A2 subunit (CNGA2) (herein called HEKOlf). As described by Shirokova et al., 2005, the human Gαolf cDNA was cloned into the mammalian expression vector pPuro and cDNA for the bovine cyclic nucleotide gated ion channel A2 (CNGA2) subunit was cloned into the mammalian expression vector pcDNA3. Both constructs were transfected using Lipofectamine2000 (Invitrogen) following the manufacturer's instructions. Cellular clones stably expressing Gαolf and CNGA2 were obtained by antibiotic selection with 0.5µg/ml Puromycin and 200µg/ml Geneticin.
All odorants were stored in the dark at 4°C upon delivery. They were prepared at 100mM stock solutions using DMSO as a solvent and stored at -20°C. On the day of the experiment the different stock solutions were directly diluted in the assay buffer (Tyrode's buffer) having the following composition: 5mM KCI, 130mM NaCl, 2mM CaCl2, 5mM NaHCO3, 1mM MgCl2, 20mM HEPES, pH7.4.
(§2) All transient transfections were performed with Lipofectamine 2000 (Invitrogen) according to the manufacturer's protocol. 10µl Lipofectamine 2000 were diluted in 500 µl DMEM and incubated for 5 minutes at room temperature. At the same time, 3µg of plasmid DNA were diluted in 500µl DMEM and added to the Lipofectamine 2000 mix to obtain a final volume of 1000µl. After incubation for a further 30 minutes at room temperature, the DNA-Lipofectamine complex was added to 1000µl of a cell suspension containing 1.600.000 cells/ml. Subsequently, 25µl per well of the complete mixture were seeded in black 384 well polystyrene assay plates. 25µl DMEM containing 20% FBS were added to each well 3 hours post-transfection.
(§3) The cDNAs for all olfactory receptors and an empty control vector were co-transfected with pGL4.29 (Promega). The pGL4.29 vector contains a cyclic adenosine monophosphate (cAMP) response element (CRE) that drives the transcription of the luciferase reporter gene luc2P (Photinus pyralis). luc2P is a synthetically-derived luciferase sequence with humanized codon optimization that is designed for high expression and reduced anomalous transcription.
In this assay, the interaction of an odorant with its cognate olfactory receptor leads to the activation of the human Gαolf G-protein. Gαolf is a stimulatory G-protein (Gαs) and activates adenylate cyclase, which converts adenosine triphosphate (ATP) into cAMP. Therefore, the activity of the transcribed luciferase can be used as an indication of olfactory receptor activation. 24 hours post-transfection the medium was removed from the transfected cells and 30 µl Tyrode's buffer containing the diluted odorants were added and incubated for 6 hours at 37°C. The cells were then transferred into an automated fluorometric imaging plate reader (FLIPR^TETRA, Molecular Devices). Subsequently, 25µl of a mixture composed of Triton X-100 and luciferin (1:1) were added. The addition of this mixture led to cell lyses and allowed interaction of the luciferase with its substrate luciferin resulting in a detectable emission of light.
The data obtained from different well replicates were analyzed with Excel, ScreenWorks, and SigmaPlot 10. The responses of each receptor to the odorants were divided by the mean responses of the receptor towards Tyrode's buffer (fold of change FOC1). The specificity of FOC1 was checked by comparing with a second FOC (FOC2) obtained by stimulating a control sample, consisting in an empty expression vector, with the same odorants and Tyrode's buffer. The mean and standard deviation of the resulting fold of change values were calculated and plotted in vertical bar charts or concentration-response curves fitted by the SigmaPlot 10 software.

OR7D4 = biological target: T2, OR7D4 (Homo sapiens, UniProt Q8NG98); assay: CRE-luciferase reporter assay, positive control receptor OR7D4; type: cell-based; conditions: 10 µM
T2 construct: expressed in transfected cells; host or cells: HEKOlf (HEK293 stably expressing human Galpha-olf and bovine CNGA2)
T2 sequence (Q8NG98 1-312): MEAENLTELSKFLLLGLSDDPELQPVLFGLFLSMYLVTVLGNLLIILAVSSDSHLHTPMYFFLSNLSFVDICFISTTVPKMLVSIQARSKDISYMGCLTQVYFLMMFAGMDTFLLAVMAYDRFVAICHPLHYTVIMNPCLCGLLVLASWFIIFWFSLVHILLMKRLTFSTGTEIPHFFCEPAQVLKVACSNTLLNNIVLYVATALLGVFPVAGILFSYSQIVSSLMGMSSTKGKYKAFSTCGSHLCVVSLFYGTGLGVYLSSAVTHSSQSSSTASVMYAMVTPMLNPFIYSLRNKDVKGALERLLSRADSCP
Description: as §1
All transient transfections were performed with Lipofectamine 2000 (Invitrogen) according to the manufacturer's protocol. […]
(§4) In this assay, the interaction of an odorant with its cognate olfactory receptor leads to the activation of the human Gαolf G-protein. […] The cells were then transferred into an automated fluorometric imaging plate reader (FLIPR^TETRA, Molecular Devices). […]
(§5) The data obtained from different well replicates were analyzed with Excel, ScreenWorks, and SigmaPlot 10. […] The mean and standard deviation of the resulting fold of change values were calculated and plotted in vertical bar charts or concentration-response curves fitted by the SigmaPlot 10 software. […]

[2] = tested on: 65 human olfactory receptors; assay: Screening against the set of 65 human olfactory receptors (CRE-luciferase); type: cell-based; conditions: 10 µM; including negative control receptor hTAS2R16
Description: as §1, with “Geneticin. […]” for “Geneticin.”
as §4, §5

OR11A1 [3] = biological target: T1, OR11A1; conditions: Adipietro et al., PLoS Genet. 2012; cited from earlier work
OR11L1 = biological target: T3, OR11L1 (Homo sapiens, UniProt Q8NGX0); assay: CRE-luciferase reporter assay in HEKOlf cells transiently transfected with OR11L1; type: cell-based; conditions: Example 3; 10/30/100 µM
T3 construct: expressed in transfected cells; host or cells: HEKOlf (HEK293 stably expressing human Galpha-olf and bovine CNGA2)
T3 sequence (Q8NGX0 1-322): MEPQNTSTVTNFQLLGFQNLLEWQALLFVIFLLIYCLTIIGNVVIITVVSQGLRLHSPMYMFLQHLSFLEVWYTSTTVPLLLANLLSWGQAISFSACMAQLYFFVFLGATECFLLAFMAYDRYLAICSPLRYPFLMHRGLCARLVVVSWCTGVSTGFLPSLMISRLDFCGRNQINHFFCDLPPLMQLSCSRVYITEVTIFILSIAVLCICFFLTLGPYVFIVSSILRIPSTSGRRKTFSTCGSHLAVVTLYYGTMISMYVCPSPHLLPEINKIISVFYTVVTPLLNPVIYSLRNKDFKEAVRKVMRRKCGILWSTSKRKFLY
Description: as §1
All odorants were stored in the dark at 4°C upon delivery. […]
as §4, §5

[4] = tested on: seven other OR11A1-related olfactory receptors; assay: CRE-luciferase reporter assay on OR11A1 related receptors; type: cell-based, human; conditions: 10/30/100 µM
Description: as §1, §2, §3
In this assay, the interaction of an odorant with its cognate olfactory receptor leads to the activation of the human Gαolf G-protein. Gαolf is a stimulatory G-protein (Gαs) and activates adenylate cyclase, which converts adenosine triphosphate (ATP) into cAMP. Therefore, the activity of the transcribed luciferase can be used as an indication of olfactory receptor activation. […] The cells were then transferred into an automated fluorometric imaging plate reader (FLIPR^TETRA, Molecular Devices). […]
as §5

[5] = Long-lasting analysis on scent strip (GC-MS with internal standard); type: physicochemical; conditions: for POG (GC-MS signal), sample 1-3 / Ratio POG/IS, sample 1-3: individual scent strips, listed as POG
Description: In one embodiment, the long-lasting analysis is carried out as follows: 50 µl of a 1 % solution of the identified candidate to be tested in alcohol, preferably ethanol, are applied on a scent strip, preferably a cellulosic scent strip, to be dosed. The strip is allowed to dry under ambient laboratory conditions, with normal room air movement, in particular no fan, heating or any mean or device to accelerate evaporation. After different times, each strip or at least the part of the scent strip including the area where the solution of the identified candidate to be tested was applied is extracted using 3 ml of alcohol, preferably ethanol, containing an internal standard, such as methyl decanoate. The extracts are then analyzed by gas chromatography and the result is normalized for the principal molecular ion of the identified candidate using the value for the internal standard.
50 µl of a 1 % solution of patchouli alcohol in ethanol was added by pipette to the tip to a series of different scent strips (SARL H. GRANGER-VEYRON, Privas, France). The strips were allowed to dry under ambient laboratory conditions.
After different times (t0, t0+1hour, t0+2hours, t0+4hours, t0+8hours) the tip of a strip where the 50 µl of the solution of the tested material had been applied was cut and put in a 30 ml bottle and extracted using 3 ml of ethanol, containing 50 µl of methyl decanoate as internal standard (10000 ppm solution in cyclohexane), added to each bottle. Care was taken to ensure the entire area around the point of application was included in the area that was cut and extracted. The content of the bottles was mixed for 30 min on a roller bed, and 2 ml vials were then filled with each sample.
Samples were triplicated, i.e. 3 scent strip tips were analysed for each time point.
In a first series of experiments, samples taken at t0, t0+1hour and t0+2hours were analyzed by GC-MS on a […] gas chromatography column (column BC-WAX (50m * 0.25mm * 0.15µm) which is a GC Sciences column supplied by Interchim, Montluçon, France).
In a second series of experiments, samples taken at t0, t0+4hours and t0+8hours were analyzed by GC-MS on a non-polar gas chromatography column (HP-5MS UI (30m * 0.25mm * 0.25µm) which is an Agilent column supplied by Chromoptic, Courtaboeuf, France).
In Tables 6-11, PA stands for patchouli alcohol and IS stands for the internal standard, i.e. methyl decanoate. When plotting the residual concentration of patchouli on the scent strip as a function of time, the mean ratio at t0 was normalized to 100 and then t0+1h, t0+2h, t0+4h and t0+8h were calculated; t0 being defined as 2 minutes after dosing the 50 µl of the solution of the tested material, which was applied towards the tip of the scent strip.
A "long-lasting" analysis of pogostone was performed as described in Example 5 with samples taken at t0, t0+1hour and t0+2hours.
In Tables 12-14 herebelow, POG stands for pogostone and IS stands for the internal standard, i.e. methyl decanoate. The mean ratio at t0 was normalized as described in Example 5.

[6] = Example 4, 3, 10 and 30 µM (Figure 5)

EC50 (OR11A1 [1]): 10.7 ± 2.6 µM
Potency and efficacy on OR11A1 (comparison between odorants) (OR11A1 [1]; Example 4): comparable
activation of OR11A1 (OR11A1 [1]; [6]): able to elicit activation
Compound: norpatchouli alcohol

activation of OR11A1 (OR11A1 [1]; Example 4, up to 100µM): did not activate
Compound: CC1CCC2C(C)(C)C3CC12CC1OC13C (stereo not shown) [andrane]

activation of OR11A1 (OR11A1 [1]; Example 4, up to 100µM): did not activate
Compound: CC1(C)CCC[C@]2(O)C(C)(C)[C@H]3CC[C@@]12C3 [Terranol, terranol]

Compound: C[C@]12CCC(=O)C[C@@H]1CC[C@@H]1[C@@H]2CC[C@]2(C)C=CC[C@@H]12 [androstenone]
activation of OR7D4 (OR7D4): robustly activated
response of the 65 olfactory receptors tested [2]: did not respond

Compound: CCC1(O)C2(C)CCC(C2)C1(C)C (stereo not shown) [2-ethylfenchol]
activation of OR11A1 (OR11A1 [3]): activation of OR11A1

Compound: CC1(C)C2CCC3(C)C4C(CCC13O)C24 (stereo not shown) [Patcho 315, 6a,7,7-trimethyldecahydro-1,4-methanocyclopropa[de]naphtalen-1-ol]
activation of OR11A1 (OR11A1 [1]; Example 3, 10/30/100 µM): strongly activated
EC50 (OR11A1 [1]): 2.9 ± 0.9 µM
Potency and efficacy on OR11A1 (comparison between odorants) (OR11A1 [1]; Example 4): highest
activation of OR11A1 (OR11A1 [1]; [6]): strongly activated
response in cells transfected with OR11L1 (OR11L1): unable to elicit a detectable response
fold of change ([4]; Example 3, figure 4): around 1
response of seven other OR11A1-related olfactory receptors ([4]; Example 3): none of the seven other OR11A1-related olfactory receptors responded

EC50 (OR11A1 [1]): 14.8 ± 3.3 µM
Potency and efficacy on OR11A1 (comparison between odorants) (OR11A1 [1]; Example 4): comparable
activation of OR11A1 (OR11A1 [1]; [6]): able to elicit activation
retained initial concentration ([5]; after 1 hour on scent strip): at least 10%
POG (GC-MS signal), mean value ([5]; t0): 1.11E+06
Ratio POG/IS, mean value ([5]; t0): 2.61E-01
POG (GC-MS signal), mean value ([5]; t0+1h): 9.55E+05
Ratio POG/IS, mean value ([5]; t0+1h): 2.08E-01
POG (GC-MS signal), sample 1-3 ([5]; t0+1h): 1.05E+06 and 9.11E+05 and 9.09E+05
Ratio POG/IS, sample 1-3 ([5]; t0+1h): 2.22E-01 and 1.98E-01 and 2.03E-01
POG (GC-MS signal), mean value ([5]; t0+2h): 8.34E+05
Ratio POG/IS, mean value ([5]; t0+2h): 1.82E-01
POG (GC-MS signal), sample 1-3 ([5]; t0+2h): 8.11E+05 and 8.75E+05 and 8.15E+05
Ratio POG/IS, sample 1-3 ([5]; t0+2h): 1.75E-01 and 1.87E-01 and 1.85E-01
POG (GC-MS signal), sample 1-3 ([5]; t0): 1.17E+06 and 1.06E+06 and 1.09E+06
Ratio POG/IS, sample 1-3 ([5]; t0): 2.92E-01 and 2.45E-01 and 2.48E-01
Compound: Cc1cc(O)c(C(=O)CCC(C)C)c(=O)o1 [Pogostone, pogostone]
